# According to publication PMC12563652 (International Journal of Molecular Sciences, 2025):
# Several values for one entry are separate records, joined by “and”; a condition that tells them apart may be missing. Equal values may be shown once. Read-outs that look alike come from different tables or passages of the source. Marks after values point to notes of the source that are not given here.
# Key:
# human TAAR1 [1] = biological target: T1, human TAAR1 (Homo sapiens, UniProt Q96RJ0); settings: at 10^−4 M; cited from earlier work
# T1 sequence (Q96RJ0 1-339): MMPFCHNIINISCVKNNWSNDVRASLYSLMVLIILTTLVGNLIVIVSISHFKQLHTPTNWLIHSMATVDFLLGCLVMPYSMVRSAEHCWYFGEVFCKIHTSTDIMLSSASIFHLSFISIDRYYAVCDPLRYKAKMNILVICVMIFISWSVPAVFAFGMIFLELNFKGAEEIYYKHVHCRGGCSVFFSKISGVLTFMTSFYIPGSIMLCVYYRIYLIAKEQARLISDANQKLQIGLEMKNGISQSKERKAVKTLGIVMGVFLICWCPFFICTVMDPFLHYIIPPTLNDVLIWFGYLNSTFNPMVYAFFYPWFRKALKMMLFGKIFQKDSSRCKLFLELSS
# α2A-adrenoceptor = biological target: T2, α2A-adrenoceptor (Homo sapiens, UniProt P08913); settings: cited from earlier work
# T2 sequence (P08913 1-465): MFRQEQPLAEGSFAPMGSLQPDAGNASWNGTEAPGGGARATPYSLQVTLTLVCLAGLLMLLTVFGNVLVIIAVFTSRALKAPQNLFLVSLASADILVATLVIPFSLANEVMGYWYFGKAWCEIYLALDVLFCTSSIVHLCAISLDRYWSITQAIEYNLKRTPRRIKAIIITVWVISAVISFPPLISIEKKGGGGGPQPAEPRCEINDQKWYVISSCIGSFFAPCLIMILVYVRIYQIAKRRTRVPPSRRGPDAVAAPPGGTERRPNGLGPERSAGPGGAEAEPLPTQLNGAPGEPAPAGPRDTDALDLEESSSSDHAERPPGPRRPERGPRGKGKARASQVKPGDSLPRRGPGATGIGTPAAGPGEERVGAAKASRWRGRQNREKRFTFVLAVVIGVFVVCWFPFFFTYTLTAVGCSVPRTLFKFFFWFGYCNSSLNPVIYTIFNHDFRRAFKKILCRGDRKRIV
# α2B-adrenoceptor [2] = biological target: T3, α2B-adrenoceptor (Homo sapiens, UniProt P18089); settings: read-out: α2B Ant IC50; cited from earlier work
# T3 sequence (P18089 1-450): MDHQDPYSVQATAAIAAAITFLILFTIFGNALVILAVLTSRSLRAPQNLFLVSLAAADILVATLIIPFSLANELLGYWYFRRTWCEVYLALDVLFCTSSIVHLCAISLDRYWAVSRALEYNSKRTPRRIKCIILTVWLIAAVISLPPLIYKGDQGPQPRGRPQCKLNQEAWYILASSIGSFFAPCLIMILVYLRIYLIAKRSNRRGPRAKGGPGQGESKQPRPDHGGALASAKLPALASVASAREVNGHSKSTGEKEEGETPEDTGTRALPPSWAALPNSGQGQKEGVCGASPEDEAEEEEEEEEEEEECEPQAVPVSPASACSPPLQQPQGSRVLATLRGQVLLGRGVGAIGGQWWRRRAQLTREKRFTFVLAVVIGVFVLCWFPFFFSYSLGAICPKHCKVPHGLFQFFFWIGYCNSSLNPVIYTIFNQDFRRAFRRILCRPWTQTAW
# [3] = rat, intraperitoneal administration; cited from earlier work
# α2-adrenoceptor = experiment: Competitive radioligand binding, [3H]clonidine, rat cerebral cortex; settings: n.a. = no activity at 10–5 M
# Experimental: The competitive radioligand-binding assay assessed affinity for α1- and α2-adrenoceptors. Experiments were carried out in the rat cerebral cortex. […] The membrane preparation and assay technique followed the previously reported protocol [10]. Radioactivity was measured using the MicroBeta2 scintillation counter (PerkinElmer, Kraków, Poland). The data was adjusted to match a single-site curve-fitting formula using Prism 8 (GraphPad Software, La Jolla, CA, USA), and the Ki values were estimated by means of the Cheng–Prusoff formula.
# α2B-adrenoceptor [4] = biological target: T3, α2B-adrenoceptor; experiment: α2B-adrenoceptor intrinsic activity, antagonist mode (AequoScreen); type: cell-based; settings: n.a. = no activity at 10–5 M; read-out: α2B Ant IC50
# Experimental: (§1) The determination of intrinsic activity will be performed in accordance with the manufacturer’s Aequoscreen methodology—Perkin Elmer.
# (§2) The cell density in the 96-well format was 5000 cells per well. Cell preparation for the assay was performed according to the manufacturer’s instructions for AequoScreen (PerkinElmer, Waltham, MA, USA). […] The cells suspension was applied onto the ligands with the injectors of the POLARstar optima reader (BMG Labtech, Ortenberg, Germany). […] The concentration and dilution series having four replicates were prepared as instructed in the AequoScreen Starter Kit Manual (PerkinElmer, Waltham, MA, USA). The wells received cell injections along with either the standard agonist or the compounds being evaluated, while the POLARstar optima reader documented the emitted light over a duration of 20 s. In the antagonist evaluation, cells were administered (50 μL) into the assay plate alongside antagonist solutions (50 μL). A single concentration of agonist (oxymetazoline) was injected (50 μL, final concentration EC80) into the preincubated (15–20 min) plate with cells and antagonist, and the emitted light was recorded for 20 s.
# [5] = biological target: T4, 5-HT2C serotoninergic receptor (Homo sapiens, UniProt P28335); experiment: 5-HT2C intrinsic activity, antagonist mode (AequoScreen calcium mobilization); type: cell-based
# T4 sequence (P28335 33-458): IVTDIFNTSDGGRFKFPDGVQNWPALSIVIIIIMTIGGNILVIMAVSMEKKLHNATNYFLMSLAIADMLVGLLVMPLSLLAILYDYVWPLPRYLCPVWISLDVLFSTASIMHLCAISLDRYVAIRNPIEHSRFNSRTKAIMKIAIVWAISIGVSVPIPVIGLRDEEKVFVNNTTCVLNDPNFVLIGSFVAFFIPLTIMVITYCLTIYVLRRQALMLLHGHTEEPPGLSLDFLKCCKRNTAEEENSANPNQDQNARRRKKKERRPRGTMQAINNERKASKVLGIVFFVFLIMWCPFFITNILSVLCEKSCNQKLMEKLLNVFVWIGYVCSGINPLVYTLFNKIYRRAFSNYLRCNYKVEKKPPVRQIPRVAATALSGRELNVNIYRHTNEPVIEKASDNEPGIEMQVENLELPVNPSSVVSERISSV
# Experimental: as §1, §2
# α1-adrenoceptor = experiment: Competitive radioligand binding, [3H]prazosin, rat cerebral cortex; settings: n.a. = no activity at 10–5 M
# Experimental: The competitive radioligand-binding assay assessed affinity for α1- and α2-adrenoceptors. Experiments were carried out in the rat cerebral cortex. […] The membrane preparation and assay technique followed the previously reported protocol. Radioactivity was measured using the MicroBeta2 scintillation counter (PerkinElmer, Kraków, Poland). The data was adjusted to match a single-site curve-fitting formula using Prism 8 (GraphPad Software, La Jolla, CA, USA), and the Ki values were estimated by means of the Cheng–Prusoff formula.
# human TAAR1 [6] = biological target: T1, human TAAR1; experiment: TAAR1 agonist activity, Hit Hunter cAMP assay; type: cell-based
# Experimental: The intrinsic activity of the TAAR1 receptor will be assessed according to the manufacturer’s protocol, using the Hit Hunter® cAMP assay by DiscoverX. This assay enables monitoring of GPCR activation in cells stably expressing TAAR1 by measuring changes in the level of the secondary messenger, cAMP. The cAMP Hunter cell lines were cultured from frozen stocks following standard procedures. Cells were plated in white-walled 384-well microplates at a total volume of 20 µL per well and incubated at 37 °C for the required period before analysis. To assess agonist activity, cells were exposed to the test compound to trigger a response. The culture medium was then removed and replaced with 15 µL of a 2:1 mixture of HBSS and 10 mM Hepes containing the cAMP XS+ antibody reagent. Sample stocks were diluted to prepare a 4× concentration in assay buffer. Subsequently, 5 µL of the 4× sample was added to each well, and the plates were incubated at either 37 °C or room temperature for 30 or 60 min. The vehicle was used at a concentration of 1%. After incubating the compounds for the required time, the assay signal was produced by adding 20 µL of the cAMP XS+ ED/CL lysis cocktail and incubating for one hour. This was followed by a three-hour incubation with 20 µL of the cAMP XS+EA reagent at room temperature. After signal development, the microplates were read using a PerkinElmer Envision Reader to detect chemiluminescence.
# [7] = system: platelet aggregation in rat whole blood; experiment: In vitro collagen-induced platelet aggregation in rat whole blood (impedance aggregometry); type: cell-based; settings: collagen 1.6 µg/mL
# Experimental: In vitro platelet aggregation assays were conducted using freshly collected whole blood from rats, utilizing the Multiplate platelet function analyzer (Roche Diagnostics, Mannheim, Germany)—a five-channel device that measures electrical impedance, following methods described previously. Upon stimulation, platelets adhere to and aggregate on dual metal sensors within the test cuvette, causing an increase in electrical resistance, which corresponds to the number of platelets attached to the electrodes.
# Blood was collected from the carotid artery of the rat into tubes coated with hirudin (S-Monovette, Sarstedt, Germany). A volume of 300 μL of the anticoagulated blood was mixed with 300 μL of prewarmed isotonic saline that contained the test compound or a vehicle control (0.1% DMSO) and incubated at 37 °C for 3 min under continuous stirring. Aggregation was triggered by adding collagen (final concentration: 1.6 µg/mL). Platelet activity was monitored for 6 min. Multiplate V2.04 software calculated the area under the curve (AUC) for each measurement to determine average platelet response.
# TAAR1 = settings: cited from earlier work
# Danio rerio larvae [8] = experiment: Nile red fluorescence fat metabolism assay in zebrafish larvae; type: in vivo; settings: 20 µg/mL, 48 h incubation of larvae
# Experimental: The study was conducted based on the method described earlier by Jones et al.. Starting at 3 days after fertilization (dpf), larvae were placed into 6-well plates and incubated with the test solutions (compounds in E3: JP-14 at a concentration of 10 μg/mL or resveratrol or E3 alone) for 48 h. Resveratrol solution (20 μg/mL) was used as the reference compound. After 24 h, the solutions were replaced with new ones containing Nile red dye (9-diethylamino-5H-benzo[α]phenoxazine-5-one, Pol-aura, Poland) at a concentration of 100 ng/mL. Nile red is a selective fluorescent lipid dye used to stain lipid droplets. Incubation with the dye was therefore 24 h. Stock solution of Nile red was prepared earlier by dissolving it in acetone to a concentration of 500 μg/mL. After the incubation period, the larvae were rinsed 3 times with 0.1 M phosphate-buffered, pH 7.4 (PBS, Sigma-Aldrich, Schnelldorf, Germany) and anesthetized with cold […] tricaine solution (Sigma-Aldrich, Schnelldorf, Germany). Next, they were visualized under a fluorescence microscope (Zeiss.Discovery.V8, Zeiss, Oberkochen, Germany) and analyzed with ImageJ FIJI program (version 2.17.0).
# Danio rerio larvae [9] = experiment: Fructose-induced lipid disturbance in zebrafish larvae (Oil Red O); type: in vivo; settings: 20 µg/mL with 4% fructose, 24 h
# Experimental: Zebrafish larvae 4 dpf were incubated for another 24 h with 4% fructose (final solution) in embryo medium to induce metabolic disorders. Tested solutions (compounds in E3: JP-14 at concentration of 20 μg/mL or resveratrol of 40 μg/mL) were added to fructose solution (8% in E3). The final concentration of JP-14 was 10 μg/mL or resveratrol of 20 μg/mL. The control group was incubated with E3 only. Incubation was carried out in a 6-well plate (10 larvae/well) to which 3 mL of liquid was added per well. Larvae were then collected, euthanized with tricaine, and transferred to 4% formaldehyde solution. After 24 h, larvae were washed 3 times with PBS (Sigma-Aldrich, Germany) and stained for neutral lipids, similar to previous studies. Larvae incubated for 1 h in a solution of 0.25% oil red O (ORO, Merck, Darmstadt, Germany) in 60% isopropanol (Merck, Germany). The samples were then rinsed three times with 60% isopropanol and washed 6 times with PBS, then imaged on a microscope (OPTA-TECH MN16, Warszawa, Poland) and analyzed with the ImageJ FIJI program. […] Next, the samples were centrifuged (10 min, 3000 rpm, MPW-260R, MPW Med Instruments, Warszawa, Poland), and the amount of dye in supernatant was determined spectrophotometrically (MuLTISKAN.GO, Thermo Fisher Scientific Inc. Waltham, MA, USA) at a wavelength of 495 nm.
molecule,measurement,setting,value
4-OH-guanabenz,TAAR1 Ago Emax (max Ago),human TAAR1 [1],34%/ (10^−4M) ^a
same,α2A-adrenoceptor activation,α2A-adrenoceptor; partial agonist,30%
same,EC50,α2A-adrenoceptor; read-out: α2A Ago EC50,316 nM
same,IC50,α2B-adrenoceptor [2],330 nM
same,highest (peak) level in brain,[3],64.5 ng/g
same,tmax in brain,[3],15 min
COc1ccc(F)c(/C=N/NC(=N)N)c1F [8 (JP10)],Ki,α2-adrenoceptor,232 ± 8.5 nM
same,IC50,α2B-adrenoceptor [4],220 nM
"CC[C@@H](CO)NC(=O)[C@@H]1C=C2c3cccc4c3c(cn4C)C[C@H]2N(C)C1 [MSE, methysergide]",EC50,[5],1.1 ± 0.1 nM
"Cc1ccc(N(CC2=NCCN2)c2cccc(O)c2)cc1 [PHT, phentolamine]",Ki,α1-adrenoceptor,10.9 ± 0.8 nM
N=C(N)N/N=C/c1c(Cl)cccc1Cl [guanabenz],TAAR1 Ago Emax,"human TAAR1 [6]; % of maximal response induced by the full agonist tyramine, listed as GNB",60%
same,EC50,"human TAAR1 [6]; cAMP accumulation, n.a. = no activity at 10–5 M, read-out: TAAR1 Ago EC50",300 nM and 301 nM
same,Emax,"human TAAR1 [6]; read-out: TAAR1 Ago Emax, % of maximal response induced by the full agonist tyramine",50%
same,increase of collagen-induced platelet aggregation,[7]; 10 µM,31.81%
same,increase of collagen-induced platelet aggregation,[7]; 100 µM,22.73%
same,EC50,TAAR1,8.5 nM
same,highest (peak) level in brain,[3],183.2 ng/g
same,tmax in brain,[3],60 min
Oc1ccc(/C=C/c2cc(O)cc(O)c2)cc1 [resveratrol],Nile red detectable fat,Danio rerio larvae [8],slightly stronger effect
same,fructose-induced yolk enlargement,Danio rerio larvae [9],Comparable effects
